Data as given in the NIST ThermoML archive (doi:10.1016/j.jct.2010.06.012).
Several values for one entry are separate records, joined by “and”; a condition that tells them apart may be missing. Identical values can stand only once. ± gives the expanded uncertainty stated by the source.

Conditions: Crystal, Calculated from knudsen effusion weight loss

Clc1ccc(-n2cccc2)cc1 [1-(4-chlorophenyl)-1H-pyrrole]
Conditions	vapor or sublimation pressure
295.22 K	0.000183 ± 9e-06 kPa and 0.000176 ± 9e-06 kPa and 0.000175 ± 9e-06 kPa
297.17 K	0.000227 ± 1.1e-05 kPa and 0.00022 ± 1.1e-05 kPa and 0.000219 ± 1.1e-05 kPa
299.22 K	0.000289 ± 1.4e-05 kPa and 0.000279 ± 1.4e-05 kPa and 0.000275 ± 1.4e-05 kPa
301.12 K	0.000363 ± 1.8e-05 kPa and 0.000364 ± 1.8e-05 kPa and 0.000378 ± 1.9e-05 kPa
303.17 K	0.000467 ± 2.3e-05 kPa and 0.000463 ± 2.3e-05 kPa and 0.000451 ± 2.3e-05 kPa
305.21 K	0.000595 ± 3e-05 kPa and 0.000571 ± 2.9e-05 kPa and 0.000558 ± 2.8e-05 kPa
307.1 K	0.000744 ± 3.7e-05 kPa and 0.000715 ± 3.6e-05 kPa and 0.000706 ± 3.5e-05 kPa
309.12 K	0.000904 ± 4.5e-05 kPa and 0.000892 ± 4.5e-05 kPa and 0.000871 ± 4.4e-05 kPa
311.22 K	0.001132 ± 0.00012 kPa and 0.001115 ± 0.00011 kPa and 0.001084 ± 0.00011 kPa

Fc1ccc(-n2cccc2)cc1 [1-(4-fluorophenyl)pyrrole]
Conditions	vapor or sublimation pressure
271.14 K	0.000157 ± 8e-06 kPa and 0.000149 ± 7e-06 kPa and 0.000152 ± 8e-06 kPa
273.16 K	0.0002 ± 1e-05 kPa and 0.000197 ± 1e-05 kPa
275.2 K	0.000237 ± 1.2e-05 kPa and 0.000236 ± 1.2e-05 kPa
277.18 K	0.000303 ± 1.5e-05 kPa and 0.000288 ± 1.4e-05 kPa and 0.000313 ± 1.6e-05 kPa
279.18 K	0.000396 ± 2e-05 kPa and 0.000393 ± 2e-05 kPa and 0.000391 ± 2e-05 kPa
281.18 K	0.000509 ± 2.6e-05 kPa and 0.000505 ± 2.5e-05 kPa and 0.000497 ± 2.5e-05 kPa
283.12 K	0.000688 ± 3.4e-05 kPa and 0.000694 ± 3.5e-05 kPa and 0.00068 ± 3.4e-05 kPa
285.13 K	0.000863 ± 4.3e-05 kPa and 0.000854 ± 4.3e-05 kPa and 0.000832 ± 4.2e-05 kPa
287.17 K	0.001072 ± 0.00011 kPa and 0.001068 ± 0.00011 kPa and 0.001064 ± 0.00011 kPa

Ic1ccc(-n2cccc2)cc1 [1-(4-iodophenyl)pyrrole]
Conditions	vapor or sublimation pressure
319.11 K	0.000107 ± 5e-06 kPa and 0.000112 ± 6e-06 kPa and 0.000109 ± 5e-06 kPa
321.19 K	0.000142 ± 7e-06 kPa and 0.00014 ± 7e-06 kPa and 0.000137 ± 7e-06 kPa
323.18 K	0.000174 ± 9e-06 kPa and 0.000169 ± 8e-06 kPa
325.12 K	0.000218 ± 1.1e-05 kPa and 0.000216 ± 1.1e-05 kPa and 0.00021 ± 1.1e-05 kPa
327.19 K	0.000274 ± 1.4e-05 kPa and 0.00027 ± 1.4e-05 kPa and 0.000265 ± 1.3e-05 kPa
329.18 K	0.000336 ± 1.7e-05 kPa and 0.000331 ± 1.7e-05 kPa and 0.000329 ± 1.6e-05 kPa
331.11 K	0.000402 ± 2e-05 kPa and 0.000421 ± 2.1e-05 kPa and 0.000416 ± 2.1e-05 kPa
333.17 K	0.00052 ± 2.6e-05 kPa and 0.000522 ± 2.6e-05 kPa and 0.000508 ± 2.5e-05 kPa
335.17 K	0.000639 ± 3.2e-05 kPa and 0.000628 ± 3.1e-05 kPa and 0.000624 ± 3.1e-05 kPa
337.12 K	0.000778 ± 3.9e-05 kPa and 0.000814 ± 4.1e-05 kPa and 0.000806 ± 4e-05 kPa
339.19 K	0.001022 ± 0.0001 kPa and 0.001014 ± 0.0001 kPa and 0.000977 ± 4.9e-05 kPa
341.17 K	0.001237 ± 0.00013 kPa and 0.001212 ± 0.00013 kPa and 0.001211 ± 0.00013 kPa
